Converted amounts (≈) assume the structure as drawn.

The ED50 is the dose at which the effect has come halfway, by size or by number of responders. Low values mean an effect at a small dose, high ones a need for a large dose. What is called Cmax is the maximum level reached in the sampled fluid or tissue. Usually Vd stands for a proportionality between amount in the body and measured concentration, not a real space. In general, clearance refers to a measure of how efficiently the substance is removed, as volume per time. Low values mean a low capacity for elimination, high ones a high capacity for elimination.

For series [1], the system named is Staphylococcus aureus. As to the kind of experiment: Antibacterial activity against methicillin-sensitive Staphylococcus aureus Sta-001 incubated for 18 hrs by CLSI protocol based two-fold serial agar dilution method. The format is functional. For orientation: In agar dilution, organisms are placed on agar that contains the substance at set levels.
Series [2] deals with Staphylococcus aureus. As to the kind of experiment: Antibacterial activity against methicillin-resistant Staphylococcus aureus Sta-032 incubated for 18 hrs by CLSI protocol based two-fold serial agar dilution method. The format is functional.
Series [3] deals with Streptococcus pneumoniae. As to the kind of experiment: Antibacterial activity against Streptococcus pneumoniae ATCC 49619 incubated for 18 hrs by CLSI protocol based two-fold serial agar dilution method. The class given is functional.
The subject of series [4] is Haemophilus influenzae. Description: Antibacterial activity against Haemophilus influenzae […] ATCC 35054 incubated for 18 hrs by CLSI protocol based two-fold serial agar dilution method. The class given is functional.
The subject of series [5] is Staphylococcus aureus. As to the kind of experiment: Antibacterial activity against Staphylococcus aureus Sta-5027 infected in Swiss mouse model of septicemia administered by oral route 1 h and 5 h post-infection. The format is functional. To be noted: Sta-5027, 168 h, time 7 day.
Series [6] concerns Staphylococcus aureus. Description: Antibacterial activity against Linezolid-resistant Staphylococcus aureus Sta-5059 incubated for 18 hrs by CLSI protocol based two-fold serial agar dilution method. The class given is functional.
Series [7] relates to Staphylococcus aureus. As to the kind of experiment: Antibacterial activity against Linezolid-resistant Staphylococcus aureus Sta-5060 incubated for 18 hrs by CLSI protocol based two-fold serial agar dilution method. The class given is functional.
Series [8] can be described thus: Cmax in Wistar rat at 15 mg/kg, iv. The format is ADME, organism-based. Further details: dose 15 mg/kg, route iv. To be noted: in vivo.
Series [9] in a line: Cmax in Wistar rat at 30 mg/kg, iv. To be noted: in vivo. The format is ADME, organism-based. Further details: dose 30 mg/kg, route iv.
The nature of series [10]: Cmax in Beagle dog at 15 mg/kg, iv. The format is ADME, organism-based, Canis lupus familiaris. Details: dose 15 mg/kg, route iv. To be noted: in vivo.
Series [11] is described as follows: AUC in Wistar rat at 15 mg/kg, iv. The class given is ADME, organism-based. Further details: dose 15 mg/kg, route iv. To be noted: in vivo.
Series [12] can be described thus: AUC in Beagle dog at 15 mg/kg, iv. The class given is ADME, organism-based, Canis lupus familiaris. Details: dose 15 mg/kg, route iv. To be noted: in vivo.
A short description of series [13]: Terminal half life in Wistar rat at 30 mg/kg, iv. The format is ADME, organism-based. To be noted: in vivo.
Series [14] in a line: Terminal half life in Beagle dog at 15 mg/kg, iv. The class given is ADME, organism-based, Canis lupus familiaris. To be noted: in vivo.
Series [15] can be described thus: Volume of distribution in Wistar rat at 15 mg/kg, iv. The class given is ADME, organism-based. To be noted: in vivo.
Series [16] is described as follows: Volume of distribution in Wistar rat at 30 mg/kg, iv. The format is ADME, organism-based. To be noted: in vivo.
Series [17] is described as follows: Clearance in Wistar rat at 15 mg/kg, iv. The class given is ADME, organism-based. To be noted: in vivo.
Series [18] is described as follows: Clearance in Wistar rat at 30 mg/kg, iv. To be noted: in vivo. The format is ADME, organism-based.
Series [19] is described as follows: Clearance in Beagle dog at 15 mg/kg, iv. The class given is ADME, organism-based, Canis lupus familiaris. To be noted: in vivo.
A short description of series [20]: AUC in Beagle dog at 15 mg/kg, iv. To be noted: in vivo.

For the molecule `CC(=O)NC[C@H]1CN(c2ccc(N3CCC4(CC3)CO4)c(F)c2)C(=O)O1`, the MIC in series [1] was 4 µg/mL (≈ 11 µM); in series [2], 4 µg/mL (≈ 11 µM); in series [3], 4 µg/mL (≈ 11 µM); in series [4], 16 µg/mL (≈ 44 µM).
As for `CC(=O)NC[C@H]1CN(c2ccc(N3CCC4(OCCO4)C(F)C3)cc2)C(=O)O1` (stereo not given in full), the MIC in series [1] is 16 µg/mL (≈ 40.7 µM); in series [2], 8 µg/mL (≈ 20.3 µM); in series [3], 4 µg/mL (≈ 10.2 µM); in [4] it was over 16 µg/mL. Further, in [5], the 50% effect level (ED50) was put at a dose of 5 mg/kg.
As to `CC(=O)NC[C@H]1CN(c2ccc(N3CCC4(CC3)OCCCCO4)c(F)c2)C(=O)O1`, the MIC in [1] is 16 µg/mL (≈ 38 µM); in series [2], 16 µg/mL (≈ 38 µM); in series [3], 4 µg/mL (≈ 9.49 µM); in series [4] it was over 16 µg/mL.
For `CC(=O)NC[C@H]1CN(c2ccc(N3CCC4(CC3)SCCS4)c(F)c2)C(=O)O1`, the MIC was 8 µg/mL (≈ 18.8 µM) in [1], 4 µg/mL (≈ 9.4 µM) in series [2], 2 µg/mL (≈ 4.7 µM) in [3] and over 16 µg/mL in series [4]. For the same molecule, the ED50 in [5] is over 20 mg/kg.
In the case of `CC(=O)NC[C@H]1CN(c2ccc(N3CCC4(OCCO4)C(F)C3)c(F)c2)C(=O)O1` (stereo not given in full), the MIC stood at 12.5 µg/mL (≈ 30.4 µM) in [1], 4 µg/mL (≈ 9.72 µM) in series [2] and 2 µg/mL (≈ 4.86 µM) in [3]. In series [5], this molecule yielded an ED50 of 5 mg/kg.
As for `CC(=O)NC[C@H]1CN(c2ccc(N3CCC4(CC3)OCC[S+]4[O-])c(F)c2)C(=O)O1` (stereo not given in full), the MIC in [1] came to 4 µg/mL (≈ 9.4 µM); in series [2] it was 4 µg/mL (≈ 9.4 µM); in series [3], 2 µg/mL (≈ 4.7 µM); in series [4] it was 8 µg/mL (≈ 18.8 µM). For the same molecule, in series [5], the 50% effective dose (ED50) amounted to 10 mg/kg.
On to `CS(=O)(=O)NC[C@H]1CN(c2ccc(N3CCC4(OCCO4)C(F)C3)c(F)c2)C(=O)O1` (stereo not given in full), for which the MIC in [1] was over 32 µg/mL; in [2], 32 µg/mL (≈ 71.5 µM); in series [3] it was over 8 µg/mL; in series [4] it was over 16 µg/mL. In series [5], this molecule returned an ED50 of over 30 mg/kg.
`CC(=O)NC[C@H]1CN(c2ccc(N3CCC4(CC3)OCC(C)(C)O4)c(F)c2)C(=O)O1` returned an MIC in series [2] of 8 µg/mL (≈ 19 µM). This molecule also yielded a median effective dose (ED50) in [5] of over 20 mg/kg.
Consider `CC(=O)NC[C@H]1CN(c2cc(F)c(N3CCC4(OCCO4)[C@@H](F)C3)c(F)c2)C(=O)O1`, for which the MIC in series [1] was 2 µg/mL (≈ 4.66 µM); in [2], 2 µg/mL (≈ 4.66 µM); in [3] it was 1 µg/mL (≈ 2.33 µM); in series [4] it was over 16 µg/mL; in [6], over 8 µg/mL; in series [7], over 8 µg/mL. This molecule came in with an ED50 in series [5] of 2.5 mg/kg. Also, the Cmax was 2370 ng/mL in series [8], 10800 ng/mL in [9] and 7100 ng/mL in [10]. Further, the AUC was determined as 7.32 µg·h/kg in [11], 6.9 µg·h/kg in [12] and 135 µg·h/mL in [20]. In [13] (Wistar, read-out: beta t1/2 (converted)), the half-life is 7.1 h. In series [14], the “beta t1/2” value was determined as 4.01 h. Also, the volume of distribution (Vd) in [15] was 0.4 L/kg; in series [16] (Wistar, read-out: Vd) it was 9.66 L/kg. In addition, the CL was determined as 220.3 mL/min/kg in series [17] and 1.7 mL/min/kg in [19]. Also, in series [18] (Wistar), the clearance was 30.3 mL/min/kg.
`CC(=O)NC[C@H]1CN(c2ccc(N3CCC4(CC3)NCCS4)c(F)c2)C(=O)O1`: the MIC in series [1] is 4 µg/mL (≈ 9.79 µM); in [2], 4 µg/mL (≈ 9.79 µM); in [3] it was 2 µg/mL (≈ 4.9 µM); in series [4], 8 µg/mL (≈ 19.6 µM). For the same molecule, in [5], the 50% effect level (ED50) was put at a dose of 5 mg/kg.
Take `CS(=O)(=O)OC[C@H]1CN(c2ccc(N3CCC4(OCCO4)C(F)C3)c(F)c2)C(=O)O1` (stereo not given in full): the MIC in series [1] is 12.5 µg/mL (≈ 27.9 µM); in series [2], 6.25 µg/mL (≈ 13.9 µM); in series [3], 4 µg/mL (≈ 8.92 µM). Moreover, in [5], the 50% effective dose (ED50) was over 10 mg/kg.
Take `CC(=O)NC[C@H]1CN(c2ccc(N3CCC4(OCCO4)C(C)C3)c(F)c2)C(=O)O1` (stereo not given in full): the MIC was 32 µg/mL (≈ 78.5 µM) in series [1], 32 µg/mL (≈ 78.5 µM) in [2], 8 µg/mL (≈ 19.6 µM) in series [3] and over 16 µg/mL in series [4].
Take `CC(=O)NC[C@H]1CN(c2ccc(N3CCC4(CC3)OCCS4(=O)=O)c(F)c2)C(=O)O1`: the MIC was over 32 µg/mL in series [1], over 32 µg/mL in series [2], 2 µg/mL (≈ 4.53 µM) in series [3] and 16 µg/mL (≈ 36.2 µM) in series [4].
As for `CC(=O)NC[C@H]1CN(c2cc(F)c(N3CCC4(OCCO4)C(F)C3)c(F)c2)C(=O)O1` (stereo not given in full), the MIC in series [1] is 2 µg/mL (≈ 4.66 µM); in series [2], 2 µg/mL (≈ 4.66 µM); in series [3], over 4 µg/mL; in series [4], 16 µg/mL (≈ 37.3 µM); in [6], over 8 µg/mL; in [7] it was over 8 µg/mL. In series [5], this molecule showed an ED50 of under 5 mg/kg.
On to `CC(=O)NC[C@H]1CN(c2ccc(N3CCOCC3)c(F)c2)C(=O)O1` [LINEZOLID], for which the values for the MIC in series [4], in series [6] and in series [7] were 4 µg/mL (≈ 11.9 µM), over 8 µg/mL and over 8 µg/mL, respectively. In [5], this molecule came in with an ED50 of 2.5 mg/kg. For the same molecule, the figures for the Cmax in [8], in series [9] and in [10] were 8700 ng/mL, 27300 ng/mL and 1620 ng/mL, respectively. The AUC is 1.24 µg·h/kg in series [11], 19.9 µg·h/kg in series [12] and 78.2 µg·h/mL in series [20]. Besides, the “beta t1/2” value worked out at 2.23 h in [13] (iv, 30 mg/kg) and 1.3 h in series [14]. Also, the Vd in series [15] came to 0.4 L/kg; in series [16] (iv, 30 mg/kg) it was 17.82 L/kg. Besides, the CL in [17] turned out to be 34 mL/min/kg; in [18] (iv, 30 mg/kg), 9.33 mL/min/kg; in series [19] it was 3.17 mL/min/kg.

(Values after ChEMBL document CHEMBL5113436, “WCK 4034: A promising oxazolidinone for treating gram positive infections” (Bioorg Med Chem Lett, 2022).)
